Assay results taken from US20070128217A1 (priority 2003, published 2007).

Key:
[1] = tested on: recombinant human anti-SARS-CoV antibody 03-018; format: binding; parameters: Binding of antibody 03-018 to linear peptides of the N protein of SARS-CoV Urbani / Binding of antibody 03-018 to looped/cyclic peptides of the N protein of SARS-CoV Urbani: unit not given here
[2] = tested on: control sera (pooled serum of ten healthy LUMC hospital workers; commercial negative donor pooled serum from the Dutch bloodbank); format: binding, human; parameters: Binding of Control serum LUMC to linear peptides / Binding of Control serum Blood-bank to linear peptides / Binding of Control serum LUMC to looped peptides / Binding of Control Serum Blood-Bank to Looped peptides / Binding of Control serum LUMC to linear peptides of the protein M of SARS-CoV Urbani / Binding of Control serum Blood-bank to linear peptides of the protein M of SARS-CoV Urbani / Binding of Control serum LUMC to looped peptides of the protein M of SARS-CoV Urbani / Binding of Control Serum Blood-Bank to Looped peptides of the protein M of SARS-CoV Urbani: unit not given here
[3] = tested on: rabbit serum obtained by immunizing a rabbit with the SARS-CoV strain Frankfurt 1; format: binding; parameters: Binding of a rabbit serum to linear peptides / Binding of a rabbit serum to looped peptides / Rabbit serum linear peptides / Rabbit serum looped peptides / Binding of a rabbit serum to linear peptides of protein N of SARS-CoV Urbani (Rabbit serum linear peptides) / Binding of a rabbit serum to looped/cyclic peptides of protein N of SARS-CoV Urbani (Rabbit serum looped peptides): unit not given here
[4] = tested on: antibodies in sera from SARS patients (sera 1a, 1b, 2, 6, 37, 62, London, SARS-yellow, SARS-green); format: binding, human; parameters: Binding of serum 6 to linear peptides of protein X1 of SARS-CoV Urbani / Binding of serum 37 to linear peptides of protein X1 of SARS-CoV Urbani / Binding of serum 6 to looped/cyclic peptide (PEPSCAN-ELISA) / Binding of serum 37 to looped/cyclic peptide (PEPSCAN-ELISA) / Binding of serum 37 to looped/cyclic peptides of protein X1 of SARS-CoV Urbani / Binding of serum 6 to linear peptides of protein X2 / Binding of serum 37 to linear peptides of protein X2 / Binding of serum 37 to looped/cyclic peptides of protein X2 of SARS-CoV Urbani / Binding of serum 6 to linear peptides of protein M of SARS-CoV Urbani / Binding of serum 37 to linear peptides of protein M of SARS-CoV Urbani / Binding of serum 6 to looped/cyclic peptides of protein M of SARS-CoV Urbani / Binding of serum 37 to looped/cyclic peptides of protein M of SARS-CoV Urbani / Binding of serum 6 to linear peptides of protein X3 of SARS-CoV Urbani / Binding of serum 37 to linear peptides of protein X3 of SARS-CoV Urbani / Binding of serum 37 to looped/cyclic peptides of protein X3 of SARS-CoV Urbani / Binding of serum 6 to linear peptides of protein X4 of SARS-CoV Urbani / Binding of serum 37 to linear peptides of protein X4 of SARS-CoV Urbani / Binding of serum 37 to looped/cyclic peptides of protein X4 of SARS-CoV Urbani / Binding of serum 6 to linear peptides of protein X5 of SARS-CoV Urbani / Binding of serum 37 to linear peptides of protein X5 of SARS-CoV Urbani / Binding of serum 37 to looped/cyclic peptides of protein X5 of SARS-CoV Urbani / Binding of serum 6 to linear peptides of protein N of SARS-CoV Urbani / Binding of serum 37 to linear peptides of protein N of SARS-CoV Urbani / Binding of serum 6 to linear peptide (PEPSCAN-ELISA) / Binding of serum 1a to looped/cyclic peptides of protein N of SARS-CoV Urbani / Binding of serum 1b to looped/cyclic peptides of protein N of SARS-CoV Urbani / Binding of serum 2 to looped/cyclic peptides of protein N of SARS-CoV Urbani / Binding of serum 6 to looped/cyclic peptides of protein N of SARS-CoV Urbani / Binding of serum 37 to looped/cyclic peptides of protein N of SARS-CoV Urbani / Binding of serum 62 to looped/cyclic peptides of protein N of SARS-CoV Urbani / Binding of serum London to looped/cyclic peptides of protein N of SARS-CoV Urbani / Binding of serum SARS-green to looped/cyclic peptides of protein N of SARS-CoV Urbani: unit not given here

| Sequence | Binding of antibody 03-018 to linear peptides of the N protein of SARS-CoV Urbani [1] | Binding of antibody 03-018 to looped/cyclic peptides of the N protein of SARS-CoV Urbani [1] | Binding of a rabbit serum to linear peptides of protein N of SARS-CoV Urbani (Rabbit serum linear peptides) [3] | Binding of a rabbit serum to looped/cyclic peptides of protein N of SARS-CoV Urbani (Rabbit serum looped peptides) [3] | Binding of serum 1a to linear peptides of protein N of SARS-CoV Urbani [4] | Binding of serum 1a to looped/cyclic peptides of protein N of SARS-CoV Urbani [4] | Binding of serum 1b to linear peptides of protein N of SARS-CoV Urbani [4] | Binding of serum 1b to looped/cyclic peptides of protein N of SARS-CoV Urbani [4] | Binding of serum 2 to linear peptides of protein N of SARS-CoV Urbani [4] | Binding of serum 2 to looped/cyclic peptides of protein N of SARS-CoV Urbani [4] | Binding of serum 6 to linear peptides of protein N of SARS-CoV Urbani [4] | Binding of serum 6 to looped/cyclic peptides of protein N of SARS-CoV Urbani [4] | Binding of serum 37 to linear peptides of protein N of SARS-CoV Urbani [4] | Binding of serum 37 to looped/cyclic peptides of protein N of SARS-CoV Urbani [4] | Binding of serum 62 to linear peptides of protein N of SARS-CoV Urbani [4] | Binding of serum 62 to looped/cyclic peptides of protein N of SARS-CoV Urbani [4] | Binding of serum London to linear peptides of protein N of SARS-CoV Urbani [4] | Binding of serum London to looped/cyclic peptides of protein N of SARS-CoV Urbani [4] | Binding of serum SARS-green to linear peptides of protein N of SARS-CoV Urbani [4] | Binding of serum SARS-green to looped/cyclic peptides of protein N of SARS-CoV Urbani [4] | further results |
| --- | --- | --- | --- | --- | --- | --- | --- | --- | --- | --- | --- | --- | --- | --- | --- | --- | --- | --- | --- | --- | --- |
| EAQPLPQRQKKQPTV | 0.1 | 0.2 | 0.1 | 0.0 | 0.2 | 0.2 | 0.2 | 0.1 | 0.3 | 0.2 | 0.3 | 0.2 | 0.7 | 0.3 | 0.7 | 0.2 | 1.2 | 0.3 | 0.4 | 0.2 | Control Serum Blood-Bank Looped peptides [2]: 0.4; Control serum Blood-bank linear peptides [2]: 0.6; Control serum LUMC linear peptides [2]: 0.7; Control serum LUMC looped peptides [2]: 0.4; Binding of serum SARS-yellow to linear peptides of protein N of SARS-CoV Urbani [4]: 1.3; Binding of serum SARS-yellow to looped/cyclic peptides of protein N of SARS-CoV Urbani [4]: 0.5 |
| EGALNTPKDHIGTRN | 0.1 | 0.3 | 0.1 | 0.0 | 0.2 | 0.3 | 0.1 | 0.2 | 0.2 | 0.5 | 0.2 | 0.3 | 0.6 | 0.6 | 0.6 | 0.3 | 0.6 | 0.5 | 0.1 | 0.4 | Binding of Control Serum Blood-Bank to Looped peptides [2]: 0.7; Binding of Control serum Blood-bank to linear peptides [2]: 0.7; Binding of Control serum LUMC to linear peptides [2]: 0.6; Binding of Control serum LUMC to looped peptides [2]: 0.5; Binding of serum SARS-yellow to linear peptides of protein N of SARS-CoV Urbani [4]: 0.5; Binding of serum SARS-yellow to looped/cyclic peptides of protein N of SARS-CoV Urbani [4]: 0.2 |
| EGIVWVATEGALNTP | 0.1 | 0.2 | 0.1 | 0.4 | 0.3 | 0.3 | 0.2 | 0.2 | 0.3 | 0.4 | 0.2 | 0.2 | 0.8 | 0.7 | 0.7 | 0.6 | 0.5 | 0.3 | 0.4 | 0.4 | Binding of Control Serum Blood-Bank to Looped peptides [2]: 0.6; Binding of Control serum Blood-bank to linear peptides [2]: 0.8; Binding of Control serum LUMC to linear peptides [2]: 0.8; Binding of Control serum LUMC to looped peptides [2]: 0.6; Binding of serum SARS-yellow to linear peptides of protein N of SARS-CoV Urbani [4]: 0.6; Binding of serum SARS-yellow to looped/cyclic peptides of protein N of SARS-CoV Urbani [4]: 0.6 |
